Source: patent US20080102082A1, “Formulation for Oral Administration Having a Health-Promoting Effect on the Cardiovascular System” (ROTTAPHARM S.p.A., priority 2004, published 2008)
Read-outs that look alike come from different tables or passages of the source.

Experiments:
[1] = target: T1, HMG-CoA reductase (HMG-CoA-r) (Homo sapiens, UniProt P04035); details: competitive enzymatic inhibition; cited from earlier work
T1 sequence (P04035 1-888): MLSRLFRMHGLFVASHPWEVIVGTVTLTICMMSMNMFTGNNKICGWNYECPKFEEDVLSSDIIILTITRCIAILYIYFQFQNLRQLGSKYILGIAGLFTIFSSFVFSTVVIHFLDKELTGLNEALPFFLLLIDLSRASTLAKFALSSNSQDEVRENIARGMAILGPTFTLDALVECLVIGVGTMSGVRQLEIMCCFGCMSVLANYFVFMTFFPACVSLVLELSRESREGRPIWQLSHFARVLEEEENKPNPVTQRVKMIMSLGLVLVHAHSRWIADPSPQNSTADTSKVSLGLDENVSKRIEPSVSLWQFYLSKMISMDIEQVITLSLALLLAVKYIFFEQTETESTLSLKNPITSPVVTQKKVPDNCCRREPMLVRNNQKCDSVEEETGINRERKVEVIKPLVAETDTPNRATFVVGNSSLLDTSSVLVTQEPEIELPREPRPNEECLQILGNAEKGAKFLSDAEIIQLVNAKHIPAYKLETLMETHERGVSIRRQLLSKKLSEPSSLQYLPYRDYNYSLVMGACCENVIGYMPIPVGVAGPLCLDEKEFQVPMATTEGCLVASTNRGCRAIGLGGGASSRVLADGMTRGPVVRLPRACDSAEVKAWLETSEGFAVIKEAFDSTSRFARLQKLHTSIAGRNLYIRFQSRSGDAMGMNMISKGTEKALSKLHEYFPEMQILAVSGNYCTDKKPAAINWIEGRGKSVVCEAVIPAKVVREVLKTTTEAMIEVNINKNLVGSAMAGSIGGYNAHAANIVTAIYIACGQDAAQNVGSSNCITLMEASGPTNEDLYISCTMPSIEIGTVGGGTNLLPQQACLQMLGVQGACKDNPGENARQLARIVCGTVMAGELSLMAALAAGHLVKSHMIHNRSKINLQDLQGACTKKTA

[2] = doses repeated daily in the animal; cited from earlier work
[3] = in man; cited from earlier work
[4] = NOAEL, repeated daily doses in the animal; assay type: in vivo; details: extrapolated from the animal NOAEL
Procedure: In man the NOAEL is 6 mg.

## CC[C@H](C)C(=O)O[C@H]1C[C@@H](C)C=C2C=C[C@H](C)[C@H](CC[C@@H]3C[C@@H](O)CC(=O)O3)[C@H]21 [Monacolin K]
[1]
  activity for the enzyme relative to the natural substrate HMG-CoA: 2000 times

## CC1=C(/C=C/C(C)=C/C=C/C(C)=C/C=C/C=C(C)/C=C/C=C(C)/C=C/C2=C(C)C(=O)[C@@H](O)CC2(C)C)C(C)(C)C[C@H](O)C1=O [AX, 3,3′-dihydroxy-β,β′-carotene-4,4′-dione]
[2]
  NOAEL (no observed adverse effect level): 1340 mg/kg
[3]
  NOAEL (no observed adverse effect level): 6 mg
[4]
  NOAEL of the animal, corresponding amount in man: more than 80 g
